Data taken from patent US20260242391A1 (priority 2023, published 2026).

Assays:
HL-60 [1] = experiment: HL-60 differentiation potency; assay type: cell-based; conditions: Homo sapiens
in vitro [2] = conditions: human
HL-60 [3] = experiment: HL-60 differentiation potency; assay type: cell-based; conditions: Homo sapiens; remark: listed apart in the source
in vitro [4] = conditions: human; remark: listed apart in the source

Structure (SMILES)	EC50 (HL-60 [1]) [nM]	IC50 (in vitro [2]) [µM]	EC50 (HL-60 [3]) [nM]	IC50 (in vitro [4]) [nM]	IC50 (in vitro [4]; HL-60 cells) [nM]
C[C@H]1[C@@H](OCc2ccc(OCC(=O)O)cc2)O[C@@H]2OC3(C)CC[C@H]4[C@H](C)CC[C@@H]1[C@@]24OO3 (stereo in doubt) [Compound 274, 2-(4-((((3R,5aS,6R,8aS, 9R,10S,12R, 12aR)-3,6,9-trimethyldeca-hydro-12H-3,12-epoxy[1,2]dioxepino[4,3-i]isochromen-10-yl)oxy)methyl)phenoxy)acetic acid]	848	> 20	–	–	–
C[C@H]1[C@H](OCc2cc(C(=O)O)ccc2Cl)O[C@@H]2O[C@@]3(C)CC[C@H]4[C@H](C)CC[C@@H]1[C@@]24OO3 [Compound 168, 4-chloro-3-((((3R,5aS,6R,8aS, 9R,10R,12R, 12aR)-3,6,9-trimethyldeca-hydro-12H-3,12-epoxy[1,2]dioxepino[4,3-i]isochromen-10-yl)oxy)methyl) benzoic acid]	–	–	45.3	6500	–
C[C@H]1[C@@H](OCc2ccc(B(O)O)cc2)O[C@@H]2O[C@@]3(C)CC[C@H]4[C@H](C)CC[C@@H]1[C@@]24OO3 [Compound 169, (4-((((3R,5aS,6R,8aS, 9R,10S,12R, 12aR)-3,6,9-trimethyldeca-hydro-12H-3,12-epoxy[1,2]dioxepino[4,3-i]isochromen-10-yl)oxy)methyl)phenyl)boronic acid]	–	–	128	270	–
C[C@H]1[C@@H](Oc2ccc(C(F)(F)C(=O)O)cc2)O[C@@H]2O[C@@]3(C)CC[C@H]4[C@H](C)CC[C@@H]1[C@@]24OO3 [Compound 171, 2,2-difluoro-2-(4-(((3R,5aS,6R,8aS, 9R,10S,12R, 12aR)-3,6,9-trimethyldeca-hydro-12H-3,12-epoxy[1,2]dioxepino[4,3-i]isochromen-10-yl)oxy)phenyl) acetic acid]	–	–	7070	> 20000	–
C[C@H]1[C@@H](OCC(C(=O)O)c2ccccc2)O[C@@H]2O[C@@]3(C)CC[C@H]4[C@H](C)CC[C@@H]1[C@@]24OO3 (stereo partly drawn) [Compound 172, 2-phenyl-3-(((3R,5aS,6R,8aS, 9R,10S,12R, 12aR)-3,6,9-trimethyldeca-hydro-12H-3,12-epoxy[1,2]dioxepino[4,3-i]isochromen-10-yl)oxy) propanic acid]	–	–	273	> 20000	–
C[C@H]1[C@H](OC[C@H]2CCC[C@@H](C(=O)O)C2)O[C@@H]2O[C@@]3(C)CC[C@H]4[C@H](C)CC[C@@H]1[C@@]24OO3 [Compound 173, (1R,3S)-3-((((3R,5aS,6R,8aS, 9R,10R,12R, 12aR)-3,6,9-trimethyldeca-hydro-12H-3,12-epoxy[1,2]dioxepino[4,3-i]isochromen-10-yl)oxy)methyl) cyclohexane-1-carboxylic acid]	–	–	170	> 20000	–
C[C@H]1[C@H](OCCCc2ccc(C(=O)O)cc2F)O[C@@H]2O[C@@]3(C)CC[C@H]4[C@H](C)CC[C@@H]1[C@@]24OO3 [Compound 174, 3-fluoro-4-(3-(((3R,5aS,6R,8aS, 9R,10R,12R, 12aR)-3,6,9-trimethyldeca-hydro-12H-3,12-epoxy[1,2]dioxepino[4,3-i]isochromen-10-yl)oxy)propyl) benzoic acid]	–	–	111	7000	–
C[C@H]1[C@@H](Oc2ccc(C3CC(C(=O)O)C3)cc2)O[C@@H]2O[C@@]3(C)CC[C@H]4[C@H](C)CC[C@@H]1[C@@]24OO3 (stereo partly drawn) [Compound 175, 3-(4-(((3R,5aS,6R,8aS, 9R,10S,12R, 12aR)-3,6,9-trimethyldeca-hydro-12H-3,12-epoxy[1,2]dioxepino[4,3-i]isochromen-10-yl)oxy)phenyl) cyclobutane-1-carboxylic acid]	–	–	58.1	1500	–
C[C@H]1[C@H](OCc2ccc(B(O)O)cc2)O[C@@H]2O[C@@]3(C)CC[C@H]4[C@H](C)CC[C@@H]1[C@@]24OO3 [Compound 176, (4-((((3R,5aS,6R,8aS, 9R,10R,12R, 12aR)-3,6,9-trimethyldeca-hydro-12H-3,12-epoxy[1,2]dioxepino[4,3-i]isochromen-10-yl)oxy)methyl)phenyl)boronic acid]	–	–	206	400	–
C[C@H]1[C@@H](OCc2c(Cl)cc(C(=O)O)cc2Cl)O[C@@H]2O[C@@]3(C)CC[C@H]4[C@H](C)CC[C@@H]1[C@@]24OO3 [Compound 177, 3,5-dichloro-4-((((3R,5aS,6R,8aS, 9R,10S,12R, 12aR)-3,6,9-trimethyldeca-hydro-12H-3,12-epoxy[1,2]dioxepino[4,3-i]isochromen-10-yl)oxy)methyl) benzoic acid]	–	–	44.5	660	–
C[C@H]1[C@@H](OCc2cc(Cl)cc(C(=O)O)c2)O[C@@H]2O[C@@]3(C)CC[C@H]4[C@H](C)CC[C@@H]1[C@@]24OO3 [Compound 178, 3-chloro-5-((((3R,5aS,6R,8aS, 9R,10S,12R, 12aR)-3,6,9-trimethyldeca-hydro-12H-3,12-epoxy[1,2]dioxepino[4,3-i]isochromen-10-yl)oxy)methyl) benzoic acid]	–	–	243	4000	–
CC(O[C@H]1O[C@@H]2O[C@@]3(C)CC[C@H]4[C@H](C)CC[C@@H]([C@H]1C)[C@@]24OO3)c1ccc(C(=O)O)cc1Cl (stereo partly drawn) [Compound 179, 3-chloro-4-(1-(((3R,5aS,6R,8aS, 9R,10S,12R, 12aR)-3,6,9-trimethyldeca-hydro-12H-3,12-epoxy[1,2]dioxepino[4,3-i]isochromen-10-yl)oxy)ethyl) benzoic acid]	–	–	65.8	1500	–
C[C@H]1[C@@H](Oc2ccc(C(C)(C)C(=O)O)cc2Cl)O[C@@H]2O[C@@]3(C)CC[C@H]4[C@H](C)CC[C@@H]1[C@@]24OO3 [Compound 180, 2-(3-chloro-4-(((3R,5aS,6R,8aS, 9R,10S,12R, 12aR)-3,6,9-trimethyldeca-hydro-12H-3,12-epoxy[1,2]dioxepino[4,3-i]isochromen-10-yl)oxy)phenyl)-2-methylpropanoic acid]	–	–	40.2	160	–
C[C@H]1[C@@H](OCC2CC3C(C2)C3C(=O)O)O[C@@H]2O[C@@]3(C)CC[C@H]4[C@H](C)CC[C@@H]1[C@@]24OO3 (stereo partly drawn) [Compound 181, 3-((((3R,5aS,6R,8aS, 9R,10S,12R, 12aR)-3,6,9-trimethyldeca-hydro-12H-3,12-epoxy[1,2]dioxepino[4,3-i]isochromen-10-yl)oxy)methyl) bicyclo[3.1.0] hexane-6-carboxylic acid]	–	–	140	> 20000	–
C[C@H]1[C@@H](Oc2ccc(O[C@H]3C[C@@H](C(=O)O)C3)cc2)O[C@@H]2O[C@@]3(C)CC[C@H]4[C@H](C)CC[C@@H]1[C@@]24OO3 [Compound 182, (1R,3s)-3-(4-(((3R,5aS,6R,8aS, 9R,10S,12R, 12aR)-3,6,9-trimethyldeca-hydro-12H-3,12-epoxy[1,2]dioxepino[4,3-i]isochromen-10-yl)oxy)phenoxy) cyclobutane-1-carboxylic acid]	–	–	24.1	–	1000
C[C@H]1[C@@H](Oc2ccc(CC(=O)O)cc2C(F)(F)F)O[C@@H]2O[C@@]3(C)CC[C@H]4[C@H](C)CC[C@@H]1[C@@]24OO3 [Compound 183, 2-(3-(trifluoromethyl)-4-(((3R,5aS,6R, 8aS,9R,10S,12R, 12aR)-3,6,9-trimethyldeca-hydro-12H-3,12-epoxy[1,2]dioxepino[4,3-i]isochromen-10-yl)oxy)phenyl) acetic acid]	–	–	47.1	900	–
C[C@H]1[C@@H](Oc2ccc(C(=O)N[C@H](C(=O)O)C(C)(C)C)cc2)O[C@@H]2O[C@@]3(C)CC[C@H]4[C@H](C)CC[C@@H]1[C@@]24OO3 [Compound 184, (S)-3,3-dimethyl-2-(4-(((3R,5aS,6R,8aS, 9R,10S,12R, 12aR)-3,6,9-trimethyldeca-hydro-12H-3,12-epoxy[1,2]dioxepino[4,3-i]isochromen-10-yl)oxy)benzamido) butanoic acid]	–	–	17	800	–
C[C@H]1[C@@H](OC[C@H]2CC[C@@H](C(=O)NC(C(=O)O)C3CCC3)CC2)O[C@@H]2O[C@@]3(C)CC[C@H]4[C@H](C)CC[C@@H]1[C@@]24OO3 (stereo partly drawn) [Compound 185, (S)-2-cyclobutyl-2-((1R,4R)-4-((((3R,5aS,6R,8aS, 9R,10S,12R, 12aR)-3,6,9-trimethyldeca-hydro-12H-3,12-epoxy[1,2]dioxepino[4,3-i]isochromen-10-yl)oxy)methyl)cyclohexane-1-carboxamido) acetic acid]	50.2	> 20	–	–	–
C[C@H]1[C@@H](Oc2cc(Cl)cc(CC(=O)O)c2)O[C@@H]2O[C@@]3(C)CC[C@H]4[C@H](C)CC[C@@H]1[C@@]24OO3 [Compound 186, 2-(3-chloro-5-(((3R,5aS,6R,8aS, 9R,10S,12R, 12aR)-3,6,9-trimethyldeca-hydro-12H-3,12-epoxy[1,2]dioxepino[4,3-i]isochromen-10-yl)oxy)phenyl) acetic acid]	62.4	4	–	–	–
C[C@H]1[C@@H](Oc2ccc(C(=O)N[C@H]3CCC[C@H]3C(=O)O)cc2)O[C@@H]2O[C@@]3(C)CC[C@H]4[C@H](C)CC[C@@H]1[C@@]24OO3 [Compound 187, (1R,2S)-2-(4-(((3R,5aS,6R,8aS, 9R,10S,12R, 12aR)-3,6,9-trimethyldeca-hydro-12H-3,12-epoxy[1,2]dioxepino[4,3-i]isochromen-10-yl)oxy)benzamido) cyclopentane-1-carboxylic acid]	33.3	2.4	–	–	–
C[C@H]1[C@@H](O[C@H]2CC[C@@H](C(=O)N[C@H]3CC[C@@H](C(=O)O)C3)CC2)O[C@@H]2O[C@@]3(C)CC[C@H]4[C@H](C)CC[C@@H]1[C@@]24OO3 [Compound 202, (1R,3S)-3-((1R,4R)-4-(((3R,5aS,6R,8aS, 9R,10S,12R, 12aR)-3,6,9-trimethyldeca-hydro-12H-3,12-epoxy[1,2]dioxepino[4,3-i]isochromen-10-yl)oxy)cyclo-hexane-1-carboxamido) cyclopentane-carboxylic acid]	4010	–	–	–	–
C[C@H]1[C@@H](Oc2ccc(C(=O)N[C@H]3C[C@@H](C(=O)O)C3)cc2)O[C@@H]2O[C@@]3(C)CC[C@H]4[C@H](C)CC[C@@H]1[C@@]24OO3 [Compound 233, (1R,3s)-3-(4-(((3R,5aS,6R,8aS, 9R,10S,12R, 12aR)-3,6,9-trimethyldeca-hydro-12H-3,12-epoxy[1,2]dioxepino[4,3-i]isochromen-10-yl)oxy)benzamido) cyclobutane-1-carboxylic acid]	93.6	–	–	–	–
